Test results: the supplement of paper PMC3493320

These compounds were tested on NCI-H295R (assay: IC50 (antiproliferative, ATP content)). Conditions: 48 h.
Procedure, shortened: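 In 1536-well plates, 1500 adrenocortical carcinoma cells per well were grown overnight in serum-free, ITS-supplemented DMEM before compounds were pin-transferred at 8 final concentrations (0.6 nM to 46 µM). After 48 h at 37 °C and 5% CO2, CellTiter-Glo luminescence was read following 20 min at room temperature and normalised to vehicle and positive-control wells. IC50 values came from logistic curve fits, with compounds lacking any concentration response listed as above the top dose.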

| Compound | IC50 [µM] |
| --- | --- |
| CC[C@H]1OC(=O)C[C@@H](O)[C@H](C)[C@@H](O[C@@H]2O[C@H](C)[C@@H](O)[C@H](N(C)C)[C@H]2O)[C@@H](CCN2C[C@H](C)C[C@H](C)C2)C[C@@H](C)C(=O)/C=C/C(C)=C/[C@@H]1CO[C@@H]1O[C@H](C)[C@@H](O)[C@@H](OC)[C@H]1OC | > 46 |
| CCCCC1C(=O)N(c2ccccc2)N(c2ccccc2)C1=O | > 46 |
| Cl.C/C(C)=N\Nc2c(cnc1c2cnn1CC)C(=O)OCC | > 46 |
| O=C1OC(OC(=O)c2cccnc2Nc2cccc(C(F)(F)F)c2)c2ccccc21 (stereo not given) | > 46 |
| Clc1ccc2nsnc2c1NC1=NCCN1 | > 46 |
| CN1CCN(C(=O)C2CCCCC2)CC1 | > 46 |
| CC1CCc2cc(F)cc3c(=O)c(C(=O)O)cn1c23 (stereo not given) | > 46 |
| COc1ccc(S(=O)(=O)N2c3ccc(Cl)cc3[C@@](O)(c3ccccc3Cl)[C@H]2C(=O)N2CCC[C@@H]2C(N)=O)cc1OC | > 46 |
| OC(c1ccccc1)(c1ccccc1)C1CN2CCC1CC2 (stereo not given) | > 46 |
| N#CN | > 46 |
| O=[C@](N[C@@H](C)CO)[C@@H](C4)C=C(C2=C1C(C3)=CNC1=CC=C2)[C@]3([H])N4C | > 46 |
| CC(=O)N[C@@H]([C@@H](O)[C@H](O)[C@H](O)CO)[C@@H](O)CC(=O)C(=O)O | > 46 |
| CC(C)CCCC(C)NC(C)C (stereo not given) | > 46 |
| CCC(C)C(N)C(=O)O (stereo not given) | > 46 |
| CC(O)Cn1cnc2c1c(=O)n(C)c(=O)n2C (stereo not given) | > 46 |
| Cl.NC1C[C@H]1c1ccccc1 (stereo not given in full) | > 46 |
| COc1ccc(C(=O)NCc2ccc(OCCN(C)C)cc2)cc1OC.Cl | > 46 |
| Nc1nc(=O)n([C@@H]2CS[C@H](CO)O2)cc1F | > 46 |
| C#C[C@]1(O)CC[C@H]2[C@@H]3CCC4=CC(=O)CC[C@@H]4[C@H]3CC[C@@]21CC | > 46 |
| CC(=O)OC[C@H]1O[C@@](COC(C)=O)(O[C@H]2O[C@H](COC(C)=O)[C@@H](OC(C)=O)[C@H](OC(C)=O)[C@H]2OC(C)=O)[C@@H](OC(C)=O)[C@@H]1OC(C)=O | > 46 |
| N=C(N)N/N=C1/C=C/C(C=C1)=N\NC(N)=S | > 46 |
| CC1CCC(NC(=O)N(CCCl)N=O)CC1 (stereo not given) | > 46 |
| O=C3N1/C(=C(\CS[C@@H]1[C@@H]3NC(=O)Cn2cnnn2)CSc4nnc(C)s4)C(O)=O | > 46 |

| Compound | IC50 [µM] |
| --- | --- |
| C=C1c2cccc(O)c2C(=O)C2=C(O)[C@]3(O)C(=O)C(C(N)=O)=C(O)[C@@H](N(C)C)[C@@H]3[C@@H](O)[C@H]12.Cl | > 46 |
| O=C1O[C@H]([C@@H](O)CO)C(O)=C1O | > 46 |
| Nc1ccc(S(=O)(=O)NCc2ccccc2)cc1 | > 46 |
| O=C(N[C@H]([C@H]1O[C@@H]([C@@H]4O)OC(C(O)=O)[C@H]([C@@H]4O)O[C@@H]([C@@H]3NC(C)=O)O[C@@H]([C@H](C3O[C@H]([C@@H]2O)O[C@H]([C@](O)=O)C([C@@H]2O)O)O)CO)C(O[C@@H]([C@H]1O)CO)O)C (stereo not given in full) | > 46 |
| CC(=O)Oc1cccc(C)c1 | > 46 |
| NC[C@@H](C1)[C@]1([C@@]2=CC=CC=C2)C(N(CC)CC)=O.Cl | > 46 |
| O=[N+]([O-])O[C@@H]1CO[C@H]2[C@@H]1OC[C@@H]2O | > 46 |
| CCCCCc1ccc(C)cc1O | > 46 |
| CCCCC(CC)CN1CN(CC(CC)CCCC)CC(C)(N)C1 (stereo not given) | > 46 |
| CN1[C@@H]2CC[C@H]1C[C@@H](OC(c1ccccc1)c1ccccc1)C2.CS(=O)(=O)O | > 46 |
| CN[C@@H]1[C@@H](O[C@H]2O[C@H](CO)[C@@H](N)[C@H](O)[C@H]2O)O[C@H]2C[C@@H](N)[C@@H](O[C@H]3[C@H](O)[C@@H](O)[C@H](N)C[C@@H]3N)O[C@@H]2[C@@H]1O | > 46 |
| O=C(c1ccccc1)c1ccc2n1CCC2C(=O)O (stereo not given) | > 46 |
| CN1CCN(CCCN2c3ccccc3Sc3ccc(S(=O)(=O)N(C)C)cc32)CC1.CS(=O)(=O)O.CS(=O)(=O)O | > 46 |
| OCc1ccccc1 | > 46 |
| N#C/C(=C1\SCC(c2ccccc2Cl)S1)n1ccnc1 (stereo not given) | > 46 |
| CCCOC(=O)c1ccccc1O | > 46 |
| CCN1CCC[C@H]1CNC(=O)c1c(OC)ccc(Br)c1OC | > 46 |
| CCN(CC)CCOC(=O)c1ccc(N)cc1.Cl | > 46 |
| O=c1[nH]cnc2c1ncn2[C@H]1CC[C@@H](CO)O1 | > 46 |
| CC(C)CN(C[C@@H](O)[C@H](Cc1ccccc1)NC(=O)O[C@H]1CO[C@H]2OCC[C@H]21)S(=O)(=O)c1ccc(N)cc1 | > 46 |
| CNCC(O)c1ccc(OC(=O)C(C)(C)C)c(OC(=O)C(C)(C)C)c1.Cl (stereo not given) | > 46 |
| Br.CN1[C@@H]2C[C@@H](OC(=O)[C@H](CO)c3ccccc3)C[C@H]1[C@@H]1O[C@@H]12.O.O.O | > 46 |
